# Where “and” joins values, the source holds several entries; their conditions need not be identical. Equal entries are not always repeated. Toxic doses and inconclusive results are not listed.
# Tested on: L1210 leukemia ip in BDF1 mice, survival T/C
# Test: NCI In Vivo Anticancer Drug Screen. Data for tumor model L1210 Leukemia (intraperitoneal) in B6D2F1 (BDF1) mice
# Conditions: endpoint: mean survival time, higher = longer survival
# Procedure, shortened: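 Each compound was tested against a transplantable tumor grown in mice. The endpoint was survival, with treated animals benchmarked against vehicle controls as a simple ratio.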
# [1] = dose: 100.0 mg/kg/injection, schedule: Q01DX009 (ip), vehicle: Klucel (hydroxypropylcellulose) (HPC)
# [2] = dose: 200.0 mg/kg/injection, schedule: Q01DX009 (ip), vehicle: Klucel (hydroxypropylcellulose) (HPC)
# [3] = dose: 100.0 mg/kg/injection, schedule: Q01DX001 (ip), vehicle: saline
# [4] = dose: 200.0 mg/kg/injection, schedule: Q01DX001 (ip), vehicle: saline
# [5] = dose: 400.0 mg/kg/injection, schedule: Q01DX001 (ip), vehicle: saline
# [6] = dose: 100.0 mg/kg/injection, schedule: Q04DX003 (ip), vehicle: Klucel (hydroxypropylcellulose) (HPC)
# [7] = dose: 200.0 mg/kg/injection, schedule: Q04DX003 (ip), vehicle: saline with Tween-80
# [8] = dose: 200.0 mg/kg/injection, schedule: Q04DX003 (ip), vehicle: Klucel (hydroxypropylcellulose) (HPC)
# [9] = dose: 100.0 mg/kg/injection, schedule: Q01DX001 (ip), vehicle: carboxymethylcellulose (CMC)
# [10] = dose: 200.0 mg/kg/injection, schedule: Q01DX001 (ip), vehicle: carboxymethylcellulose (CMC)
# [11] = dose: 400.0 mg/kg/injection, schedule: Q01DX001 (ip), vehicle: carboxymethylcellulose (CMC)
# [12] = dose: 100.0 mg/kg/injection, schedule: Q01DX001 (ip), vehicle: saline with Tween-80
# [13] = dose: 200.0 mg/kg/injection, schedule: Q01DX001 (ip), vehicle: saline with Tween-80
# [14] = dose: 400.0 mg/kg/injection, schedule: Q01DX001 (ip), vehicle: saline with Tween-80
compound,measurement,setting,value
C=CCSc1nccc(=O)[nH]1,T/C,[1],110 % of control
same,T/C,[2],96 % of control
Cc1ccc(Nc2nc(N)nc(N)c2N)cc1,T/C,"dose: 6.0 mg/kg/injection, schedule: Q01DX Z (ip), vehicle: saline",95 % of control
same,T/C,"dose: 12.0 mg/kg/injection, schedule: Q01DX Z (ip), vehicle: saline",97 % of control
COP(=O)(OCCCCCl)C(Cl)(Cl)Cl (centres undefined),T/C,[3],102 % of control
same,T/C,[4],102 % of control
same,T/C,[5],104 % of control
CN(C)CCNCc1ccccc1,T/C,"dose: 44.4 mg/kg/injection, schedule: Q01DX001 (ip), vehicle: saline",95 % of control and 98 % of control
same,T/C,"dose: 66.7 mg/kg/injection, schedule: Q01DX001 (ip), vehicle: saline",96 % of control and 102 % of control
same,T/C,"dose: 75.0 mg/kg/injection, schedule: Q01DX001 (ip), vehicle: saline",98 % of control
same,T/C,"dose: 150.0 mg/kg/injection, schedule: Q01DX001 (ip), vehicle: saline",91 % of control and 94 % of control
same,T/C,"dose: 300.0 mg/kg/injection, schedule: Q01DX001 (ip), vehicle: saline",95 % of control
COc1ccc(C[n+]2cccc(NC(=O)COc3ccc(Cl)c(Cl)c3)c2)cc1,T/C,[6],97 % of control
c1cc(N2CCOCC2)cc(NC2CCCCC2)n1,T/C,"dose: 5.0 mg/kg/injection, schedule: Q01DX001 (ip), vehicle: saline",95 % of control
same,T/C,"dose: 10.0 mg/kg/injection, schedule: Q01DX001 (ip), vehicle: saline",104 % of control
same,T/C,"dose: 20.0 mg/kg/injection, schedule: Q01DX001 (ip), vehicle: saline",97 % of control
same,T/C,"dose: 40.0 mg/kg/injection, schedule: Q01DX001 (ip), vehicle: saline",103 % of control
same,T/C,"dose: 80.0 mg/kg/injection, schedule: Q01DX001 (ip), vehicle: saline",98 % of control
CCOP(=O)(Cc1ccccc1)OCC,T/C,"dose: 100.0 mg/kg/injection, schedule: Q04DX003 (ip), vehicle: saline",110 % of control
same,T/C,"dose: 200.0 mg/kg/injection, schedule: Q04DX003 (ip), vehicle: saline",103 % of control
same,T/C,"dose: 400.0 mg/kg/injection, schedule: Q04DX003 (ip), vehicle: saline",98 % of control
CCCCCCCCCCCCC(=O)N1CCOCC1,T/C,"dose: 100.0 mg/kg/injection, schedule: Q04DX003 (ip), vehicle: saline with Tween-80",122 % of control
same,T/C,[7],107 % of control
same,T/C,"dose: 400.0 mg/kg/injection, schedule: Q04DX003 (ip), vehicle: saline with Tween-80",104 % of control
CP(c1ccccc1)c1ccccc1,T/C,"dose: 50.0 mg/kg/injection, schedule: Q01DX009 (ip), vehicle: Klucel (hydroxypropylcellulose) (HPC)",98 % of control
same,T/C,[1],95 % of control
same,T/C,[6],104 % of control
same,T/C,[8],114 % of control
NC(N)=NCCCC(NC(=O)OCc1ccccc1)C(=O)O (centres undefined),T/C,[1],106 % of control and 94 % of control
same,T/C,[6],94 % of control and 97 % of control
same,T/C,[2],109 % of control and 91 % of control
same,T/C,[8],86 % of control and 99 % of control
same,T/C,"dose: 400.0 mg/kg/injection, schedule: Q01DX009 (ip), vehicle: Klucel (hydroxypropylcellulose) (HPC)",97 % of control and 87 % of control
same,T/C,"dose: 400.0 mg/kg/injection, schedule: Q04DX003 (ip), vehicle: Klucel (hydroxypropylcellulose) (HPC)",92 % of control
NC(C(=O)O)c1cccc(F)c1 (centres undefined),T/C,"dose: 50.0 mg/kg/injection, schedule: Q01DX001 (ip), vehicle: saline",98 % of control
same,T/C,[3],101 % of control
same,T/C,[4],101 % of control
same,T/C,[5],95 % of control
CCSC(SCC)C(SCC)C(O)C(O)C(O)CO (centres undefined),T/C,[9],106 % of control
same,T/C,[10],112 % of control
same,T/C,[11],114 % of control
CC1=CC(=O)C2CCC=C(C(=O)O)C2(C)C1=O (centres undefined),T/C,"dose: 100.0 mg/kg/injection, schedule: Q04DX003 (ip), vehicle: alcohol",97 % of control
same,T/C,"dose: 200.0 mg/kg/injection, schedule: Q04DX003 (ip), vehicle: alcohol",102 % of control
same,T/C,"dose: 400.0 mg/kg/injection, schedule: Q04DX003 (ip), vehicle: alcohol",97 % of control
CSc1nccc2c1ncn2C1OC(CO)C(O)C1O (centres undefined),T/C,[3],104 % of control
same,T/C,[4],95 % of control
Cc1ccc2c(ccc3c[n+]4ccccc4c(C)c32)c1,T/C,"dose: 12.5 mg/kg/injection, schedule: Q01DX001 (ip), vehicle: carboxymethylcellulose (CMC)",107 % of control
same,T/C,"dose: 25.0 mg/kg/injection, schedule: Q01DX001 (ip), vehicle: carboxymethylcellulose (CMC)",96 % of control
O=C(COCC(=O)N/N=C/c1ccc(Cl)c(Cl)c1)N/N=C/c1ccc(Cl)c(Cl)c1,T/C,"dose: 6.25 mg/kg/injection, schedule: Q01DX009 (ip), vehicle: saline with Tween-80",92 % of control
same,T/C,"dose: 12.5 mg/kg/injection, schedule: Q01DX009 (ip), vehicle: saline with Tween-80",90 % of control
same,T/C,"dose: 25.0 mg/kg/injection, schedule: Q01DX009 (ip), vehicle: saline with Tween-80",89 % of control
same,T/C,[7],86 % of control
Nc1nc(N)c(-c2ccc(Cl)c(Cl)c2)c(CCc2ccc(CNC(=O)c3cc(S(=O)(=O)F)ccc3Cl)cc2)n1,T/C,[12],97 % of control
same,T/C,[13],94 % of control
same,T/C,[14],94 % of control
CCOC(=O)Nc1cc2c(c(N)n1)N=C(CN(C)c1ccc(C(=O)OC)cc1)CN2,T/C,"dose: 5.0 mg/kg/injection, schedule: Q01DX009 (ip), vehicle: saline with Tween-80",105 % of control
same,T/C,"dose: 10.0 mg/kg/injection, schedule: Q01DX009 (ip), vehicle: saline with Tween-80",118 % of control
same,T/C,"dose: 20.0 mg/kg/injection, schedule: Q01DX009 (ip), vehicle: saline with Tween-80",124 % of control
same,T/C,"dose: 100.0 mg/kg/injection, schedule: Q01DX001 (ip), vehicle: other",107 % of control
same,T/C,"dose: 200.0 mg/kg/injection, schedule: Q01DX001 (ip), vehicle: other",111 % of control
CCNP(=O)(OCC)OCC,T/C,"dose: 50.0 mg/kg/injection, schedule: Q01DX001 (ip), vehicle: carboxymethylcellulose (CMC)",94 % of control
same,T/C,[9],92 % of control
same,T/C,[10],94 % of control
same,T/C,[11],118 % of control
CN(C)S(=O)(=O)c1ccccc1C(O)(c1ccccc1)c1ccccc1,T/C,[9],95 % of control
same,T/C,[10],93 % of control
same,T/C,[11],98 % of control
CCC1([N+](=O)[O-])COP(=O)(OP2(=O)OCC(CC)([N+](=O)[O-])CO2)OC1 (centres undefined),T/C,[3],116 % of control
same,T/C,[4],97 % of control
same,T/C,[5],100 % of control
CC1SCC(NC(=O)N(CCCl)N=O)CS1 (centres undefined),T/C,"dose: 8.0 mg/kg/injection, schedule: Q01DX001 (ip), vehicle: saline with Tween-80",150 % of control
same,T/C,"dose: 12.0 mg/kg/injection, schedule: Q01DX001 (ip), vehicle: saline with Tween-80",264 % of control
same,T/C,"dose: 18.0 mg/kg/injection, schedule: Q01DX001 (ip), vehicle: saline with Tween-80",389 % of control
same,T/C,"dose: 26.0 mg/kg/injection, schedule: Q01DX001 (ip), vehicle: saline with Tween-80",368 % of control
same,T/C,"dose: 60.0 mg/kg/injection, schedule: Q01DX001 (ip), vehicle: saline with Tween-80",104 % of control
ClC1=NC(c2ccccc2)N2C(Cl)C12 (centres undefined),T/C,[12],103 % of control
same,T/C,"dose: 100.0 mg/kg/injection, schedule: Q01DX009 (ip), vehicle: saline with Tween-80",104 % of control
same,T/C,[13],95 % of control
same,T/C,"dose: 200.0 mg/kg/injection, schedule: Q01DX009 (ip), vehicle: saline with Tween-80",98 % of control
same,T/C,[14],95 % of control
same,T/C,"dose: 400.0 mg/kg/injection, schedule: Q01DX009 (ip), vehicle: saline with Tween-80",104 % of control
Cc1ccccc1NC(=O)Oc1ccccc1-c1ccccc1,T/C,"dose: 100.0 mg/kg/injection, schedule: Q04DX002 (ip), vehicle: Klucel (hydroxypropylcellulose) (HPC)",103 % of control
same,T/C,"dose: 200.0 mg/kg/injection, schedule: Q04DX002 (ip), vehicle: Klucel (hydroxypropylcellulose) (HPC)",118 % of control
same,T/C,"dose: 400.0 mg/kg/injection, schedule: Q04DX002 (ip), vehicle: Klucel (hydroxypropylcellulose) (HPC)",118 % of control
